Each compound was assayed against AMPK (assay: AMPK activation, enzyme-linked immunosorbent assay). Conditions: compounds of Table 1 (Table 6).
Type: biochemical
Protocol: Compounds of Table 1 were assayed for their ability to activate AMPK using an enzyme-linked immunosorbent assay.
Compounds of Table 2 were assayed for their ability to activate AMPK using an enzyme-linked immunosorbent assay.
Compounds of Table 3 were assayed for their ability to activate AMPK using an enzyme-linked immunosorbent assay.
Compounds of Table 4 were assayed for their ability to activate AMPK using an enzyme-linked immunosorbent assay.
Compounds of Table 5 were assayed for their ability to activate AMPK using an enzyme-linked immunosorbent assay.

| SMILES | EC50 [nM] |
| --- | --- |
| O=C(N[C@H]1CCN(Cc2cccnc2)C1)c1cc2cc(OC3CCN(Cc4ccc(Cl)cc4)CC3)ccc2o1 [1-130, (S)-5-(1-(4-chlorobenzyl)piperidin-4-yloxy)-N-(1-(pyridin-3-ylmethyl)pyrrolidin-3-yl)benzofuran-2-carboxamide] | 1000 to 5000 |
| N#Cc1ccc(CN2CCC(Oc3ccc4oc(C(=O)NC5CCN(Cc6ccncc6)CC5)cc4c3)CC2)cc1 [1-79, 5-(1-(4-cyanobenzyl)piperidin-4-yloxy)-N-(1-(pyridin-4-ylmethyl)piperidin-4-yl)benzofuran-2-carboxamide] | 100 to 500 |
| CC(C)(C)OC(=O)N1CCC(NC(=O)c2cc3ccc(OC4CCN(c5ccc(OC(F)(F)F)cc5)CC4)cc3o2)CC1 [1-81, tert-butyl 4-(6-(1-(4-(trifluoromethoxy)phenyl)piperidin-4-yloxy)benzofuran-2-carboxamido)piperidine-1-carboxylate] | 100 to 500 |
| O=C(NC1CCN(Cc2ccc3ccccc3c2)CC1)c1ccc(OC2CCN(c3ccc(C(F)(F)F)cc3)CC2)cn1 [1-37, N-(1-(naphthalen-2-ylmethyl)piperidin-4-yl)-5-(1-(4-(trifluoromethyl)phenyl)piperidin-4-yloxy)picolinamide] | 500 to 1000 |
| O=C(N[C@H]1CCN(Cc2ccncc2)C1)c1cc2cc(OC3CCN(Cc4ccc(Cl)cc4)CC3)ccc2o1 [1-129, (S)-5-(1-(4-chlorobenzyl)piperidin-4-yloxy)-N-(1-(pyridin-4-ylmethyl)pyrrolidin-3-yl)benzofuran-2-carboxamide] | 1000 to 5000 |
| O=C(NC1CCN(Cc2ccncc2)CC1)c1ccc(OC2CCN(c3ccc(C(F)(F)F)cc3)CC2)cn1 [1-3, N-(1-(pyridin-4-ylmethyl)piperidin-4-yl)-5-(1-(4-(trifluoromethyl)phenyl)piperidin-4-yloxy)picolinamide] | < 100 |
| N#Cc1ccccc1CN1CCC(NC(=O)c2cc3ccc(OC4CCN(c5ccc(OC(F)(F)F)cc5)CC4)cc3o2)CC1 [1-97, N-(1-(2-cyanobenzyl)piperidin-4-yl)-6-(1-(4-(trifluoromethoxy)phenyl)piperidin-4-yloxy)benzofuran-2-carboxamide] | < 100 |
| O=C(N[C@H]1CCN(Cc2ccncc2)C1)c1ccc(OC2CCN(c3ccc(C(F)(F)F)cc3)CC2)cn1 [1-30, (S)-N-(1-(pyridin-4-ylmethyl)pyrrolidin-3-yl)-5-(1-(4-(trifluoromethyl)phenyl)piperidin-4-yloxy)picolinamide] | < 100 |
| N#Cc1ccc(N2CCC(Oc3ccc4oc(C(=O)NC5CCN(Cc6ccccc6)CC5)cc4c3)CC2)cc1 [1-71, N-(1-benzylpiperidin-4-yl)-5-(1-(4-cyanophenyl)piperidin-4-yloxy)benzofuran-2-carboxamide] | < 100 |
| N#Cc1ccc(CN2CCC(Oc3ccc(S(=O)(=O)NC4CCN(Cc5ccncc5)CC4)cn3)CC2)cc1 [1-53, 6-(1-(4-cyanobenzyl)piperidin-4-yloxy)-N-(1-(pyridin-4-ylmethyl)piperidin-4-yl)pyridine-3-sulfonamide] | 100 to 500 |
| O=C(NCCCNCc1ccncc1)c1ccc(OC2CCN(c3ccc(C(F)(F)F)cc3)CC2)cn1 [1-50, N-(3-(pyridin-4-ylmethylamino)propyl)-5-(1-(4-(trifluoromethyl)phenyl)piperidin-4-yloxy)picolinamide] | 1000 to 5000 |
| O=C(c1ccc(F)cc1)N1CCC(NS(=O)(=O)c2ccc(OC3CCN(c4ccc(C(F)(F)F)cc4)CC3)nc2)CC1 [1-60, N-(1-(4-fluorobenzoyl)piperidin-4-yl)-6-(1-(4-(trifluoromethyl)phenyl)piperidin-4-yloxy)pyridine-3-sulfonamide] | > 10000 |
| O=C(NC1CCNCC1)c1ccnc(OC2CCN(c3ccc(C(F)(F)F)cc3)CC2)c1 [1-19, N-(piperidin-4-yl)-2-(1-(4-(trifluoromethyl)phenyl)piperidin-4-yloxy)isonicotinamide] | 1000 to 5000 |
| O=C(N[C@@H]1CCN(Cc2ccncc2)C1)c1ccc(OC2CCN(c3ccc(C(F)(F)F)cc3)CC2)cn1 [1-25, (R)-N-(1-(pyridin-4-ylmethyl)pyrrolidin-3-yl)-5-(1-(4-(trifluoromethyl)phenyl)piperidin-4-yloxy)picolinamide] | 100 to 500 |
| N#Cc1ccc(CN2CCC(NC(=O)c3cc4ccc(OC5CCN(c6ccc(OC(F)(F)F)cc6)CC5)cc4o3)CC2)cc1 [1-89, N-(1-(4-cyanobenzyl)piperidin-4-yl)-6-(1-(4-(trifluoromethoxy)phenyl)piperidin-4-yloxy)benzofuran-2-carboxamide] | < 100 |

Same assay, conditions: compounds of Table 2 (Table 7)

| SMILES | EC50 [nM] |
| --- | --- |
| O=C(NC1CCN(C(=O)Nc2ccc(C(F)(F)F)cc2)CC1)c1ccc2[nH]c3c(c2c1)CN(Cc1ccc(C(F)(F)F)cc1)CC3 [2-33, 2-(4-(trifluoromethyl)benzyl)-N-(1-(4-(trifluoromethyl)phenylcarbamoyl)piperidin-4-yl)-2,3,4,5-tetrahydro-1H-pyrido[4,3-b]indole-8-carboxamide] | 1000 to 5000 |
| Cn1c2c(c3cc(C(=O)NC4CCN(Cc5ccc(C(F)(F)F)cc5)CC4)ccc31)CN(Cc1ccc(C(F)(F)F)cc1)CC2 [2-17, N-(1-(4-trifluoro-methylbenzyl)piperidin-4-yl)-5-methyl-2-(4-(trifluoromethyl)benzyl)-2,3,4,5-tetrahydro-1H-pyrido[4,3-b]indole-8-carboxamide] | 500 to 1000 |
| N#Cc1ccc(S(=O)(=O)N2CCC(NC(=O)c3ccc4[nH]c5c(c4c3)CN(Cc3ccc(C(F)(F)F)cc3)CC5)CC2)cc1 [2-21, N-(1-(4-cyanophenyl-sulfonyl)piperidin-4-yl)-2-(4-(trifluoro-methyl)benzyl)-2,3,4,5-tetrahydro-1H-pyrido[4,3-b]indole-8-carboxamide] | 500 to 1000 |
| O=C(NC1CCN(Cc2ccc(C(F)(F)F)cc2)CC1)c1ccc2[nH]c3c(c2c1)CN(Cc1ccccc1)CC3 [2-5, 2-benzyl-N-(1-(4-trifluoromethylbenzyl)piperidin-4-yl)-2,3,4,5-tetrahydro-1H-pyrido[4,3-b]indole-8-carboxamide] | 1000 to 5000 |
| O=C(NC1CCN(S(=O)(=O)c2ccc(F)cc2)CC1)c1ccc2[nH]c3c(c2c1)CN(Cc1ccc(C(F)(F)F)cc1)CC3 [2-28, N-(1-(4-fluorophenyl-sulfonyl)piperidin-4-yl)-2-(4-(trifluoro-methyl)benzyl)-2,3,4,5-tetrahydro-1H-pyrido [4,3-b]indole-8-carboxamide] | 1000 to 5000 |

Same assay, conditions: compounds of Table 3 (Table 8)

| SMILES | EC50 [nM] |
| --- | --- |
| N#Cc1ccc(CN2CCC(NC(=O)c3cnc(OC4CCN(c5ccc(C(F)(F)F)cc5)CC4)s3)CC2)cc1 [3-23, N-(1-(4-cyanobenzyl)piperidin-4-yl)-2-(1-(4-(trifluoromethyl)phenyl)piperidin-4-yloxy)thiazole-5-carboxamide] | < 100 |
| O=C(NC1CCNCC1)c1nc2ccc(OC3CCN(c4ccc(C(F)(F)F)cc4)CC3)cc2o1 [3-5, N-(piperidin-4-yl)-6-(1-(4-(trifluoromethyl)phenyl)piperidin-4-yloxy)benzo[d]oxazole-2-carboxamide] | 10000 to 100000 |

Same assay, conditions: compounds of Table 5 (Table 10)

| SMILES | EC50 [nM] |
| --- | --- |
| CC(C)(C)c1ccc(CN2CCC(Oc3ccc(C(=O)NC4CCN(c5ccccc5)CC4)cc3F)CC2)cc1 [5-36, 4-(1-(4-tert-butylbenzyl)piperidin-4-yloxy)-3-fluoro-N-(1-phenylpiperidin-4-yl)benzamide] | < 1000 |
| O=C(NC1CCN(Cc2ccccc2)CC1)c1ccc(OC2CCN(c3ccc(C(F)(F)F)cc3)CC2)cc1Cl [5-47, N-(1-benzylpiperidin-4-yl)-2-chloro-4-(1-(4-(trifluoromethyl)phenyl)piperidin-4-yloxy)benzamide] | < 1000 |
| Cn1cncc1CN1CCC(Oc2ccc(C(=O)NC3CCN(Cc4ccccc4)CC3)cc2)CC1 [5-4, N-(1-benzylpiperidin-4-yl)-4-(1-((1-methyl-1H-imidazol-5-yl)methyl)piperidin-4-yloxy)benzamide] | > 100000 |
| CC(C)(C)C(=O)N1CCC(NC(=O)c2ccc(OC3CCN(c4ccc(C(F)(F)F)cc4)CC3)c(F)c2)CC1 [5-30, 3-fluoro-N-(1-pivaloylpiperidin-4-yl)-4-(1-(4-(trifluoromethyl)phenyl)piperidin-4-yloxy)benzamide] | < 1000 |
| COc1cc(C(=O)NCCCNC(=O)OC(C)(C)C)ccc1OC1CCN(Cc2ccc(C(F)(F)F)cc2)CC1 [5-94, tert-butyl 3-(3-methoxy-4-(1-(4-(trifluoromethyl)benzyl)piperidin-4-yloxy)benzamido)propylcarbamate] | < 1000 |
| O=C(NC1CCN(Cc2ccccc2)CC1)c1ccc(OC2CCN(Cc3cccnc3)CC2)c(F)c1 [5-38, N-(1-benzylpiperidin-4-yl)-3-fluoro-4-(1-(pyridin-3-ylmethyl)piperidin-4-yloxy)benzamide] | 1000 to 10000 |
| CC(C)(C)OC(=O)NCCCNC(=O)c1ccc(OC2CCN(Cc3ccccc3)CC2)c(Cl)c1 [5-102, tert-butyl 3-(4-(1-benzylpiperidin-4-yloxy)-3-chlorobenzamido)propylcarbamate] | 10000 to 20000 |
| O=C(NC1CCN(Cc2ccccc2)CC1)c1ccc(OC2CCN(Cc3ccc(C(F)(F)F)cc3)CC2)c(Cl)c1 [5-56, N-(1-benzylpiperidin-4-yl)-3-chloro-4-(1-(4-(trifluoromethyl)benzyl)piperidin-4-yloxy)benzamide] | < 1000 |
| O=C(NC1CCN(Cc2ccccc2)CC1)c1ccc(OC2CCN(C(=O)c3ccc(F)cc3)CC2)c(Cl)c1 [5-22, N-(1-benzylpiperidin-4-yl)-3-chloro-4-(1-(4-fluorobenzoyl)piperidin-4-yloxy)benzamide] | 1000 to 10000 |
| O=C(NC1CCN(Cc2ccccc2)CC1)c1ccc(OC2CCNCC2)c(Cl)c1 [5-93, N-(1-benzylpiperidin-4-yl)-3-chloro-4-(piperidin-4-yloxy)benzamide] | > 100000 |
| O=C(NC1CCN(Cc2ccccc2)CC1)c1ccc(OC2CCN(Cc3ccc(F)cc3)CC2)c(F)c1 [5-61, N-(1-benzylpiperidin-4-yl)-3-fluoro-4-(1-(4-fluorobenzyl)piperidin-4-yloxy)benzamide] | < 1000 |
| O=C(NC1CCN(Cc2ccccc2)CC1)c1cccc(OC2CCN(Cc3ccccc3)CC2)c1 [5-13, N-(1-benzylpiperidin-4-yl)-3-(1-benzylpiperidin-4-yloxy)benzamide] | 20000 to 50000 |
